Data set [1] deals with Differentiated U937 cells. Nature of the data set: (l) Cell viability: MTT assay. Format: cell-based, human. Conditions: 1 μg/mL. The protocol: Differentiated U937 cells are pre-incubated with each test compound (final concentration 1 μg/mL or 10 μg/mL in 200 μL media indicated below) under two protocols: the first for 4 hr in 5% FCS RPMI1640 media and the second in 10% FCS RPMI1640 media for 24 h. The supernatant is replaced with new media (200 μL) and MTT stock solution (10 μL, 5 mg/mL) is added to each well. After incubation for 1 hr the media are removed, DMSO (200 μL) is added to each well and the plates are shaken lightly for 1 hr prior to reading the absorbance at 550 nm. The percentage loss of cell viability is calculated for each well relative to vehicle (0.5% DMSO) treatment. Consequently an apparent increase in cell viability for drug treatment relative to vehicle is tabulated as a negative percentage.
Background: Tetrazolium assays rely on reduction of a dye to a coloured formazan, in cell work by metabolically active cells.

For data set [2], the target named is p38 MAPKα isoform (MAPK14) (Homo sapiens (Human), UniProt Q16539). Nature of the data set: p38 MAPKα enzyme inhibition (FRET, Z-LYTE), Method 1. The format is biochemical. The settings on record: Method 1 (Table 4a1). The protocol:
The enzyme inhibitory activities of compounds disclosed herein are determined by FRET using synthetic peptides labelled with both donor and acceptor fluorophores (Z-LYTE, Invitrogen Ltd., Paisley, UK).
The inhibitory activities of test compounds against the p38 MAPKα isoform (MAPK14: Invitrogen), are evaluated indirectly by determining the level of activation/phosphorylation of the down-stream molecule, MAPKAP-K2. The p38 MAPKα protein (80 ng/mL, 2.5 μL) is mixed with the test compound (2.5 μL of either 4 μg/mL, 0.4 μg/mL, 0.04 μg/mL or 0.004 μg/mL) for 2 hr at RT. […] The mixture is incubated for 1 hr at RT. Development reagent (protease, 5 μL) is added for 1 hr prior to detection in a fluorescence microplate reader (Varioskan® Flash, ThermoFisher Scientific).
In all cases, the site-specific protease cleaves non-phosphorylated peptide only and eliminates the FRET signal. Phosphorylation levels of each reaction are calculated using the ratio of coumarin emission (donor) over fluorescein emission (acceptor), for which high ratios indicate high phosphorylation and low ratios indicate low phosphorylation levels.

Experimental findings from patent US9701670B2, “Pyrazolyl-ureas as kinase inhibitors” (RESPIVERT LIMITED, priority 2013, dated 2017) are described below.

Sequence of p38 MAPKα isoform (MAPK14) (Q16539 whole entry, canonical isoform): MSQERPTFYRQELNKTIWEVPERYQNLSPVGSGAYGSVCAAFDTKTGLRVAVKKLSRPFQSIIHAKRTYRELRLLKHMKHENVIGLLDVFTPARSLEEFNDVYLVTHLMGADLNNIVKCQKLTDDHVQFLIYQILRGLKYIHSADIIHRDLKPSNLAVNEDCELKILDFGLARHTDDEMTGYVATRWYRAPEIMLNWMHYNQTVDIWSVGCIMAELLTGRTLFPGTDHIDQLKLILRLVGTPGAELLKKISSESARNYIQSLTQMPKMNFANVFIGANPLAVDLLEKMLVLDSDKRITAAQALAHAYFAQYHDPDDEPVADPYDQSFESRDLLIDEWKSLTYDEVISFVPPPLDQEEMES

For `Cc1ccc(-n2nc(C(C)C)cc2NC(=O)Nc2ccc(Oc3ccnc(Nc4cc(C(=O)NCCN5CCOCC5)cc(C(F)(F)F)c4)n3)c3ccccc23)cc1` [Example 7, 3-((4-((4-(3-(3-isopropyl-1-(p-tolyl)-1H-pyrazol-5-yl)ureido)naphthalen-1-yl)oxy)pyrimidin-2-yl)amino)-N-(2-morpholinoethyl)-5-(trifluoromethyl)benzamide], in data set [1], the “Cell viability at time point in d-U937 cells 4 h” value is “−ve (−ve and +ve indicate that the value is below and above respectively, the no significant effect threshold, defined as 30% inhibition at 1 μg/mL at the time point indicated.)”; the “Cell viability at time point in d-U937 cells 24 h” value is “−ve (−ve and +ve indicate that the value is below and above respectively, the no significant effect threshold, defined as 30% inhibition at 1 μg/mL at the time point indicated.)”.
For the molecule `COc1cc(Nc2nccc(Oc3ccc(NC(=O)Nc4cc(C(C)(C)C)nn4-c4ccc(OC)nc4)c4ccccc34)n2)cc(C(=O)NCCN2CCOCC2)c1` [Example 57, 3-((4-((4-(3-(3-(tert-butyl)-1-(6-methoxypyridin-3-yl)-1H-pyrazol-5-yl)ureido)naphthalen-1-yl)oxy)pyrimidin-2-yl)amino)-5-methoxy-N-(2-morpholinoethyl)benzamide], in data set [1], the “Cell viability at time point in d-U937 cells 4 h” value is “−ve (−ve and +ve indicate that the value is below and above respectively, the no significant effect threshold, defined as 30% inhibition at 1 μg/mL at the time point indicated.)”; the “Cell viability at time point in d-U937 cells 24 h” value is “−ve (−ve and +ve indicate that the value is below and above respectively, the no significant effect threshold, defined as 30% inhibition at 1 μg/mL at the time point indicated.)”.
`COc1cc(C(=O)NCCO)ccc1Nc1nccc(Oc2ccc(NC(=O)Nc3cc(C(C)(C)C)nn3-c3ccc(C)cc3)c3ccccc23)n1` [Example 4, 4-((4-((4-(3-(3-(tert-Butyl)-1-(p-tolyl)-1H-pyrazol-5-yl)ureido)naphthalen-1-yl)oxy)pyrimidin-2-yl)amino)-N-(2-hydroxyethyl)-3-methoxybenzamide] registered a half-inhibitory concentration (IC50) in data set [2] of 26 nM. For the same molecule, in data set [1], the “Cell viability at time point in d-U937 cells 4 h” value is “−ve (−ve and +ve indicate that the value is below and above respectively, the no significant effect threshold, defined as 30% inhibition at 1 μg/mL at the time point indicated.)”; the “Cell viability at time point in d-U937 cells 24 h” value is “−ve (−ve and +ve indicate that the value is below and above respectively, the no significant effect threshold, defined as 30% inhibition at 1 μg/mL at the time point indicated.)”.
In turn, `COc1ccc(-n2nc(C(C)C)cc2NC(=O)Nc2ccc(Oc3ccnc(Nc4cc(OC)cc(C(=O)NCCO)c4)n3)c3ccccc23)cc1` [Example 65, N-(2-hydroxyethyl)-3-((4-((4-(3-(3-isopropyl-1-(4-methoxyphenyl)-1H-pyrazol-5-yl)ureido)naphthalen-1-yl)oxy)pyrimidin-2-yl)amino)-5-methoxybenzamide] came in with an IC50 in data set [2] of 23 nM. For the same molecule, in data set [1], the “Cell viability at time point in d-U937 cells 4 h” value is “−ve (−ve and +ve indicate that the value is below and above respectively, the no significant effect threshold, defined as 30% inhibition at 1 μg/mL at the time point indicated.)”; the “Cell viability at time point in d-U937 cells 24 h” value is “−ve (−ve and +ve indicate that the value is below and above respectively, the no significant effect threshold, defined as 30% inhibition at 1 μg/mL at the time point indicated.)”.
The molecule `COc1cc(Nc2nccc(Oc3ccc(NC(=O)Nc4cc(C(C)C)nn4-c4ccc(C)c(C)c4)c4ccccc34)n2)cc(C(=O)NCCN2CCOCC2)c1` [Example 56, 3-((4-((4-(3-(1-(3,4-dimethylphenyl)-3-isopropyl-1H-pyrazol-5-yl)ureido)naphthalen-1-yl)oxy)pyrimidin-2-yl)amino)-5-methoxy-N-(2-morpholinoethyl)benzamide] yielded a concentration for half-maximal inhibition (IC50) in data set [2] of less than 1 nM. In data set [1], the “Cell viability at time point in d-U937 cells 4 h” value is “−ve (−ve and +ve indicate that the value is below and above respectively, the no significant effect threshold, defined as 30% inhibition at 1 μg/mL at the time point indicated.)”; the “Cell viability at time point in d-U937 cells 24 h” value is “−ve (−ve and +ve indicate that the value is below and above respectively, the no significant effect threshold, defined as 30% inhibition at 1 μg/mL at the time point indicated.)”.
In the case of `COc1ccc(-n2nc(C(C)C)cc2NC(=O)Nc2ccc(Oc3ccnc(Nc4cc(OC)cc(C(=O)NCCN(C)C)c4)n3)c3ccccc23)cc1` [Example 6, N-(2-(Dimethylamino)ethyl)-3-((4-((4-(3-(3-isopropyl-1-(4-methoxyphenyl)-1H-pyrazol-5-yl)ureido)naphthalen-1-yl)oxy)pyrimidin-2-yl)amino)-5-methoxy benzamide], in data set [1], the “Cell viability at time point in d-U937 cells 4 h” value is “−ve (−ve and +ve indicate that the value is below and above respectively, the no significant effect threshold, defined as 30% inhibition at 1 μg/mL at the time point indicated.)”; the “Cell viability at time point in d-U937 cells 24 h” value is “−ve (−ve and +ve indicate that the value is below and above respectively, the no significant effect threshold, defined as 30% inhibition at 1 μg/mL at the time point indicated.)”.
On to `COc1ccc(-n2nc(C(C)C)cc2NC(=O)Nc2ccc(Oc3ccnc(Nc4cc(C)cc(C(=O)NCCN5CCOCC5)c4)n3)c3ccccc23)cc1` [Example 45, 3-((4-((4-(3-(3-isopropyl-1-(4-methoxyphenyl)-1H-pyrazol-5-yl)ureido)naphthalen-1-yl)oxy)pyrimidin-2-yl)amino)-5-methyl-N-(2-morpholinoethyl)benzamide], for which, in data set [1], the “Cell viability at time point in d-U937 cells 4 h” value is “−ve (−ve and +ve indicate that the value is below and above respectively, the no significant effect threshold, defined as 30% inhibition at 1 μg/mL at the time point indicated.)”; the “Cell viability at time point in d-U937 cells 24 h” value is “−ve (−ve and +ve indicate that the value is below and above respectively, the no significant effect threshold, defined as 30% inhibition at 1 μg/mL at the time point indicated.)”.
With `Cc1ccc(-n2nc(C(C)C)cc2NC(=O)Nc2ccc(Oc3ccnc(Nc4cccc(C(=O)NCCN5CCOCC5)c4)n3)c3ccccc23)cc1` [Example 19, 3-((4-((4-(3-(3-isopropyl-1-(p-tolyl)-1H-pyrazol-5-yl)ureido)naphthalen-1-yl)oxy)pyrimidin-2-yl)amino)-N-(2-morpholinoethyl)benzamide], in data set [1], the “Cell viability at time point in d-U937 cells 4 h” value is “−ve (−ve and +ve indicate that the value is below and above respectively, the no significant effect threshold, defined as 30% inhibition at 1 μg/mL at the time point indicated.)”; the “Cell viability at time point in d-U937 cells 24 h” value is “−ve (−ve and +ve indicate that the value is below and above respectively, the no significant effect threshold, defined as 30% inhibition at 1 μg/mL at the time point indicated.)”.
In data set [2], `COc1ccc(-n2nc(C(C)(C)C)cc2NC(=O)Nc2ccc(Oc3cc(Nc4cc(OC)cc(C(=O)NCCN5CCOCC5)c4)ncn3)c(C)c2C)cc1` [Example 91, 3-((6-(4-(3-(3-(tert-Butyl)-1-(4-methoxyphenyl)-1H-pyrazol-5-yl)ureido)-2,3-dimethylphenoxy)pyrimidin-4-yl)amino)-5-methoxy-N-(2-morpholinoethyl)benzamide] came in with an IC50 of 9.6 nM.
For `COc1ccc(Nc2nccc(Oc3ccc(NC(=O)Nc4cc(C(C)(C)C)nn4-c4ccc(C)cc4)c4ccccc34)n2)cc1C(=O)NCCN1CCOCC1` [Example 13, 5-((4-((4-(3-(3-(tert-Butyl)-1-(p-tolyl)-1H-pyrazol-5-yl)ureido)naphthalen-1-yl)oxy)pyrimidin-2-yl)amino)-2-methoxy-N-(2-morpholinoethyl)benzamide], in data set [1], the “Cell viability at time point in d-U937 cells 4 h” value is “−ve (−ve and +ve indicate that the value is below and above respectively, the no significant effect threshold, defined as 30% inhibition at 1 μg/mL at the time point indicated.)”; the “Cell viability at time point in d-U937 cells 24 h” value was “−ve (−ve and +ve indicate that the value is below and above respectively, the no significant effect threshold, defined as 30% inhibition at 1 μg/mL at the time point indicated.)”.
Turning to `COc1ccc(C(=O)NCCN(C)C)cc1Nc1nccc(Oc2ccc(NC(=O)Nc3cc(C(C)(C)C)nn3-c3ccc(C)cc3)c3ccccc23)n1` [Example 29, 3-((4-((4-(3-(3-(tert-butyl)-1-(p-tolyl)-1H-pyrazol-5-yl)ureido)naphthalen-1-yl)oxy)pyrimidin-2-yl)amino)-N-(2-(dimethylamino)ethyl)-4-methoxybenzamide], in data set [1], the “Cell viability at time point in d-U937 cells 4 h” value is “−ve (−ve and +ve indicate that the value is below and above respectively, the no significant effect threshold, defined as 30% inhibition at 1 μg/mL at the time point indicated.)”; the “Cell viability at time point in d-U937 cells 24 h” value is “−ve (−ve and +ve indicate that the value is below and above respectively, the no significant effect threshold, defined as 30% inhibition at 1 μg/mL at the time point indicated.)”.

In general, IC50 refers to the concentration that gives 50% inhibition.
